Experimental data taken from the NIST ThermoML archive (doi:10.1016/j.fluid.2014.09.020).
± gives the expanded uncertainty stated by the source.

Assay: mn = molality of the nth substance listed, in mol/kg
Details: 101 kPa, Liquid; for viscosity: Capillary tube (Ostwald / Ubbelohde) method; for electrical conductivity: Direct current cell with electrodes; for mass density: Vibrating tube method

Structure (SMILES): CCC[N+]1(C)CCCCC1.[Br-] [1-methyl-1-propylpiperidinium bromide] + O
- viscosity (293.15 K, m1 = 0.2501): 1.291 ± 0.016 mPa·s
- viscosity (293.15 K, m1 = 0.5): 1.402 ± 0.017 mPa·s
- viscosity (293.15 K, m1 = 0.75): 1.529 ± 0.019 mPa·s
- viscosity (293.15 K, m1 = 0.9998): 1.669 ± 0.021 mPa·s
- viscosity (293.15 K, m1 = 1.25): 1.84 ± 0.023 mPa·s
- viscosity (293.15 K, m1 = 1.5): 2.03 ± 0.025 mPa·s
- viscosity (293.15 K, m1 = 1.75): 2.216 ± 0.027 mPa·s
- viscosity (293.15 K, m1 = 2.001): 2.419 ± 0.03 mPa·s
- viscosity (293.15 K, m1 = 2.2): 2.604 ± 0.032 mPa·s
- viscosity (293.15 K, m1 = 2.4): 2.792 ± 0.034 mPa·s
- electrical conductivity (293.15 K, m1 = 0.2501): 1.61 ± 0.02 S/m
- electrical conductivity (293.15 K, m1 = 0.5): 2.44 ± 0.02 S/m
- electrical conductivity (293.15 K, m1 = 0.75): 3.08 ± 0.02 S/m
- electrical conductivity (293.15 K, m1 = 0.9998): 3.57 ± 0.02 S/m
- electrical conductivity (293.15 K, m1 = 1.25): 3.91 ± 0.02 S/m
- electrical conductivity (293.15 K, m1 = 1.5): 4.14 ± 0.02 S/m
- electrical conductivity (293.15 K, m1 = 1.75): 4.29 ± 0.02 S/m
- electrical conductivity (293.15 K, m1 = 2.001): 4.38 ± 0.02 S/m
- electrical conductivity (293.15 K, m1 = 2.2): 4.41 ± 0.02 S/m
- electrical conductivity (293.15 K, m1 = 2.4): 4.44 ± 0.02 S/m
- mass density (293.15 K, m1 = 0.2501): 1008.72 ± 0.24 kg/m3
- mass density (293.15 K, m1 = 0.5): 1018.24 ± 0.24 kg/m3
- mass density (293.15 K, m1 = 0.75): 1027.42 ± 0.25 kg/m3
- mass density (293.15 K, m1 = 0.9998): 1036.22 ± 0.26 kg/m3
- mass density (293.15 K, m1 = 1.25): 1044.44 ± 0.26 kg/m3
- mass density (293.15 K, m1 = 1.5): 1052.29 ± 0.27 kg/m3
- mass density (293.15 K, m1 = 1.75): 1059.77 ± 0.28 kg/m3
- mass density (293.15 K, m1 = 2.001): 1066.77 ± 0.28 kg/m3
- mass density (293.15 K, m1 = 2.2): 1072.13 ± 0.29 kg/m3
- mass density (293.15 K, m1 = 2.4): 1077.21 ± 0.29 kg/m3
- viscosity (298.15 K, m1 = 0.2501): 1.178 ± 0.015 mPa·s
- viscosity (298.15 K, m1 = 0.5): 1.259 ± 0.016 mPa·s
- viscosity (298.15 K, m1 = 0.75): 1.356 ± 0.017 mPa·s
- viscosity (298.15 K, m1 = 0.9998): 1.466 ± 0.018 mPa·s
- viscosity (298.15 K, m1 = 1.25): 1.607 ± 0.02 mPa·s
- viscosity (298.15 K, m1 = 1.5): 1.769 ± 0.022 mPa·s
- viscosity (298.15 K, m1 = 1.75): 1.922 ± 0.024 mPa·s
- viscosity (298.15 K, m1 = 2.001): 2.091 ± 0.026 mPa·s
- viscosity (298.15 K, m1 = 2.2): 2.249 ± 0.028 mPa·s
- viscosity (298.15 K, m1 = 2.4): 2.408 ± 0.03 mPa·s
- electrical conductivity (298.15 K, m1 = 0.2501): 1.75 ± 0.02 S/m
- electrical conductivity (298.15 K, m1 = 0.5): 2.64 ± 0.02 S/m
- electrical conductivity (298.15 K, m1 = 0.75): 3.33 ± 0.02 S/m
- electrical conductivity (298.15 K, m1 = 0.9998): 3.86 ± 0.02 S/m
- electrical conductivity (298.15 K, m1 = 1.25): 4.23 ± 0.02 S/m
- electrical conductivity (298.15 K, m1 = 1.5): 4.48 ± 0.02 S/m
- electrical conductivity (298.15 K, m1 = 1.75): 4.65 ± 0.02 S/m
- electrical conductivity (298.15 K, m1 = 2.001): 4.76 ± 0.02 S/m
- electrical conductivity (298.15 K, m1 = 2.2): 4.81 ± 0.02 S/m
- electrical conductivity (298.15 K, m1 = 2.4): 4.85 ± 0.02 S/m
- mass density (298.15 K, m1 = 0.2501): 1007.5 ± 0.23 kg/m3
- mass density (298.15 K, m1 = 0.5): 1016.88 ± 0.24 kg/m3
- mass density (298.15 K, m1 = 0.75): 1025.92 ± 0.25 kg/m3
- mass density (298.15 K, m1 = 0.9998): 1034.59 ± 0.26 kg/m3
- mass density (298.15 K, m1 = 1.25): 1042.69 ± 0.26 kg/m3
- mass density (298.15 K, m1 = 1.5): 1050.42 ± 0.27 kg/m3
- mass density (298.15 K, m1 = 1.75): 1057.79 ± 0.27 kg/m3
- mass density (298.15 K, m1 = 2.001): 1064.7 ± 0.28 kg/m3
- mass density (298.15 K, m1 = 2.2): 1069.98 ± 0.28 kg/m3
- mass density (298.15 K, m1 = 2.4): 1074.98 ± 0.29 kg/m3
- viscosity (303.15 K, m1 = 0.2501): 1.044 ± 0.013 mPa·s
- viscosity (303.15 K, m1 = 0.5): 1.116 ± 0.014 mPa·s
- viscosity (303.15 K, m1 = 0.75): 1.203 ± 0.015 mPa·s
- viscosity (303.15 K, m1 = 0.9998): 1.302 ± 0.016 mPa·s
- viscosity (303.15 K, m1 = 1.25): 1.424 ± 0.018 mPa·s
- viscosity (303.15 K, m1 = 1.5): 1.559 ± 0.019 mPa·s
- viscosity (303.15 K, m1 = 1.75): 1.688 ± 0.021 mPa·s
- viscosity (303.15 K, m1 = 2.001): 1.827 ± 0.023 mPa·s
- viscosity (303.15 K, m1 = 2.2): 1.951 ± 0.024 mPa·s
- viscosity (303.15 K, m1 = 2.4): 2.073 ± 0.026 mPa·s
- electrical conductivity (303.15 K, m1 = 0.2501): 1.9 ± 0.02 S/m
- electrical conductivity (303.15 K, m1 = 0.5): 2.83 ± 0.02 S/m
- electrical conductivity (303.15 K, m1 = 0.75): 3.57 ± 0.02 S/m
- electrical conductivity (303.15 K, m1 = 0.9998): 4.14 ± 0.02 S/m
- electrical conductivity (303.15 K, m1 = 1.25): 4.54 ± 0.02 S/m
- electrical conductivity (303.15 K, m1 = 1.5): 4.82 ± 0.02 S/m
- electrical conductivity (303.15 K, m1 = 1.75): 5.04 ± 0.02 S/m
- electrical conductivity (303.15 K, m1 = 2.001): 5.18 ± 0.02 S/m
- electrical conductivity (303.15 K, m1 = 2.2): 5.24 ± 0.02 S/m
- electrical conductivity (303.15 K, m1 = 2.4): 5.3 ± 0.02 S/m
- mass density (303.15 K, m1 = 0.2501): 1006.09 ± 0.23 kg/m3
- mass density (303.15 K, m1 = 0.5): 1015.33 ± 0.24 kg/m3
- mass density (303.15 K, m1 = 0.75): 1024.23 ± 0.25 kg/m3
- mass density (303.15 K, m1 = 0.9998): 1032.75 ± 0.25 kg/m3
- mass density (303.15 K, m1 = 1.25): 1040.75 ± 0.26 kg/m3
- mass density (303.15 K, m1 = 1.5): 1048.38 ± 0.27 kg/m3
- mass density (303.15 K, m1 = 1.75): 1055.64 ± 0.27 kg/m3
- mass density (303.15 K, m1 = 2.001): 1062.46 ± 0.28 kg/m3
- mass density (303.15 K, m1 = 2.2): 1067.67 ± 0.28 kg/m3
- mass density (303.15 K, m1 = 2.4): 1072.61 ± 0.29 kg/m3
- viscosity (308.15 K, m1 = 0.2501): 0.9225 ± 0.012 mPa·s
- viscosity (308.15 K, m1 = 0.5): 0.9723 ± 0.012 mPa·s
- viscosity (308.15 K, m1 = 0.75): 1.037 ± 0.013 mPa·s
- viscosity (308.15 K, m1 = 0.9998): 1.113 ± 0.014 mPa·s
- viscosity (308.15 K, m1 = 1.25): 1.206 ± 0.015 mPa·s
- viscosity (308.15 K, m1 = 1.5): 1.311 ± 0.016 mPa·s
- viscosity (308.15 K, m1 = 1.75): 1.417 ± 0.018 mPa·s
- viscosity (308.15 K, m1 = 2.001): 1.53 ± 0.019 mPa·s
- viscosity (308.15 K, m1 = 2.2): 1.629 ± 0.02 mPa·s
- viscosity (308.15 K, m1 = 2.4): 1.728 ± 0.021 mPa·s
- electrical conductivity (308.15 K, m1 = 0.2501): 2.04 ± 0.02 S/m
- electrical conductivity (308.15 K, m1 = 0.5): 3.03 ± 0.02 S/m
- electrical conductivity (308.15 K, m1 = 0.75): 3.82 ± 0.02 S/m
- electrical conductivity (308.15 K, m1 = 0.9998): 4.43 ± 0.02 S/m
- electrical conductivity (308.15 K, m1 = 1.25): 4.86 ± 0.02 S/m
- electrical conductivity (308.15 K, m1 = 1.5): 5.16 ± 0.02 S/m
- electrical conductivity (308.15 K, m1 = 1.75): 5.4 ± 0.02 S/m
- electrical conductivity (308.15 K, m1 = 2.001): 5.57 ± 0.02 S/m
- electrical conductivity (308.15 K, m1 = 2.2): 5.65 ± 0.02 S/m
- electrical conductivity (308.15 K, m1 = 2.4): 5.72 ± 0.02 S/m
- mass density (308.15 K, m1 = 0.2501): 1004.66 ± 0.23 kg/m3
- mass density (308.15 K, m1 = 0.5): 1013.72 ± 0.24 kg/m3
- mass density (308.15 K, m1 = 0.75): 1022.62 ± 0.25 kg/m3
- mass density (308.15 K, m1 = 0.9998): 1030.82 ± 0.25 kg/m3
- mass density (308.15 K, m1 = 1.25): 1038.67 ± 0.26 kg/m3
- mass density (308.15 K, m1 = 1.5): 1046.1 ± 0.27 kg/m3
- mass density (308.15 K, m1 = 1.75): 1053.72 ± 0.27 kg/m3
- mass density (308.15 K, m1 = 2.001): 1060.11 ± 0.28 kg/m3
- mass density (308.15 K, m1 = 2.2): 1065.32 ± 0.28 kg/m3
- mass density (308.15 K, m1 = 2.4): 1070.23 ± 0.29 kg/m3
